Assay results taken from patent US20160128988A1, “COMBINATIONS FOR THE TREATMENT OF CANCER COMPRISING A MPS-1 KINASE INHIBITOR AND A MITOTIC INHIBITOR” (BAYER PHARMA AKTIENGESELLSCHAFT, priority 2013, published 2016).

Tests used:
[1] = system: IGR-OV1 human ovarian carcinoma model
Procedure: Paclitaxel was administered IV QW at 50% of its respective MTD.

[2] = Maximum tolerated dose (MTD); assay type: in vivo, nude mice; details: nude, mouse, in vivo; Compound A1 PO 2QD 2 days on/5 days off; paclitaxel IV QW; docetaxel i.v. 1 day on/6 days off; read-out: MTD (maximum tolerated dose), single-agent
[3] = system: MDA-MB 231 human triple-negative breast cancer xenograft tumors
Procedure: The effect of combination treatment of an Mps-1 kinase inhibitor (Compound A1) and paclitaxel was studied in the MDA-MB 231 human triple-negative (no expression of Her2/neu, progesterone receptor, estrogen receptor) xenograft model in nude mice.
Paclitaxel was applied intravenously once per week upon its respective MTD. Substances were formulated in optimal vehicles to achieve solutions. Animal body weight and tumor size were determined three times weekly. […] For combination treatment, Compound A1 and paclitaxel were applied at the same day within a time frame of 4 hours. Animals of control and monotherapy group (Compound A1 only) were treated for a duration of 28 days. Animals of paclitaxel monotherapy and paclitaxel/Mps-1 kinase inhibitor treatment groups were treated for a duration of 50 days. At the end of the study after one final treatment plasma and tumors were sampled for PK analysis and final tumor weight was determined.
MDA-MB 231 human breast cancer cells were implanted s.c. into nude mice on day 0. […] Compound A1 was administered orally (p.o.) upon 1 mg/kg twice daily (2QD) for 2 days on/5 days off (2 on/5 off) in monotherapy and in combination with paclitaxel. Paclitaxel was administered intravenously (i.v.) upon 20 mg/kg once daily (QD) once per week (1 on/6 off) in monotherapy and combination therapy. Tumor growth was monitored by determination of the tumor area using calliper measurement three times weekly. FIG. 3A: Time course of tumor growth. FIG. 3B: Weight of tumors in paclitaxel/Mps-1 kinase inhibitor combination group at the end of the study at day 73 after tumor cell inoculation. FIG. 3C: Time course of animal body weight change during the course of the study.

A2780cis xenograft model = system: A2780cis xenograft model
Procedure: The effect of the combination treatment of Compound A1 with paclitaxel was studied in a human ovarian carcinoma model in nude mice, namely in the adaptive cisplatin-resistant and paclitaxel intrinsically-resistant A2780cis xenograft model. […] Paclitaxel was administered IV QW at its respective MTD.

[4] = system: primary human NSCLC xenograft model LU387; test: Combination with paclitaxel in primary human NSCLC xenograft model LU387; assay type: in vivo, nude mice; details: for mean tumor size: day 42 post treatment
Procedure: The effect of Compound A1 and paclitaxel compared with a vehicle was evaluated in the subcutaneous primary human NSCLC xenograft model LU387 on nude mice.

[5] = system: MKN1 human gastric carcinoma model; test: Combination with paclitaxel in MKN1 human gastric carcinoma model; details: Compound A1 single agent 1 mg/kg or 2.5 mg/kg (40 days); paclitaxel and combination (78 treatment days)
Procedure: Compound A1 was administered PO in the 2QD intermittent (2 days on/5 days off) dosing schedule up to the respective MTD in single-agent treatment and at a dose of 40% of the single-agent MTD in combination. Paclitaxel was administered IV QW at its respective MTD. Treatment for all groups started at a tumor size of 27 mm^2, on day 7 after tumor cell inoculation. For combination treatment, Compound A1 and paclitaxel were administered on the same day within a time of 4 hours. Animals of the control and Compound A1 single-agent treatment groups were treated for 40 days. Animals of the paclitaxel single-agent and Compound A1 with paclitaxel combination treatment groups were treated for 78 days.

Compound: COc1cc(S(C)(=O)=O)ccc1Nc1nc2ccc(-c3ccc(NC(=O)[C@H](C)c4ccc(F)cc4)cc3)cn2n1 [Compound A1]
- T/Cweight ([1]; 38 treatment days, Compound A1 2.5 mg/kg PO 2QD 2 days on/5 days off): 0.52
- relative T/Carea ([1]; 38 treatment days, Compound A1 single agent 2.5 mg/kg PO 2QD, paclitaxel 12 mg/kg IV QW, combination with Compound A1 2 mg/kg PO 2QD): 0.57
- anti-tumor efficacy (in words) ([1]; Compound A1 2.5 mg/kg single agent (38 days), paclitaxel 12 mg/kg and combination with Compound A1 2 mg/kg (treatment day 38 to 59)): moderate single-agent efficacy
- tolerability (in words) ([1]; mouse, in vivo): well tolerated without critical body weight loss or toxicities
- MTD [2]: 2.5 mg/kg
- Fatal Tox ([3]; Compound A1 1 mg/kg 2QD 2on/5off p.o., paclitaxel 20 mg/kg QD 1on/6off i.v.): 0/10
- anti-tumor efficacy (in words) ([3]; Compound A1 1 mg/kg 2QD p.o. (28 treatment days), combination with paclitaxel 20 mg/kg i.v. (50 treatment days)): no effect on tumor growth
- tolerability (in words) ([3]; Compound A1 1 mg/kg 2QD p.o., paclitaxel 20 mg/kg i.v.): well tolerated without critical body weight loss or toxicities
- T/C weight ([3]; mean final tumor weight, Compound A1 1 mg/kg 2QD 2on/5off p.o.): 0.92
- T/C area ([3]; relative mean tumor area, 28 treatment days, Compound A1 1 mg/kg 2QD 2on/5off p.o., paclitaxel 20 mg/kg QD 1on/6off i.v.): 0.91
- T/Cweight (A2780cis xenograft model; 14 treatment days, Compound A1 1 mg/kg PO 2QD 2 days on/5 days off): 0.87
- relative T/Carea (A2780cis xenograft model; 14 treatment days, Compound A1 1 mg/kg PO 2QD 2 days on/5 days off, paclitaxel 24 mg/kg IV QW): 0.89
- anti-tumor efficacy (in words) (A2780cis xenograft model; Compound A1 1 mg/kg (14 days), combination with paclitaxel 24 mg/kg (36 treatment days)): weak single-agent efficacy
- tolerability (in words) (A2780cis xenograft model; mouse, in vivo): well tolerated without critical body weight loss or toxicities
- antitumor activity (in words) ([4]; Compound A1 single agent 1 mg/kg and 2.5 mg/kg, combination with paclitaxel): no significant antitumor activity
- T/Cvolume ([4]; day 42, Compound A1 2.5 mg/kg (high dose)): 0.73
- mean tumor size ([4]; Compound A1 1 mg/kg PO 2QD 2 days on/5 days off over 6 weeks): 1788 mm^3
- mean tumor size ([4]; Compound A1 2.5 mg/kg PO 2QD 2 days on/5 days off over 6 weeks): 1137 mm^3
- anti-tumor efficacy (in words) [5]: no effect on tumor growth inhibition
